Key:
T-47D = experiment: NCI one-dose screening, breast cancer T-47D; format: cell-based, human; conditions: 10 μM
ACHN = experiment: NCI one-dose screening, renal cancer ACHN; format: cell-based, human; conditions: 10 μM
HS 578-T = experiment: NCI one-dose screening, breast cancer HS 578-T; format: cell-based, human; conditions: 10 μM; Breast cancer
U251 = experiment: NCI one-dose screening, CNS cancer U251; format: cell-based, human; conditions: 10 μM
HOP-92 = experiment: NCI one-dose screening, non-small cell lung cancer HOP-92; format: cell-based, human; conditions: 10 μM
SK-MEL-28 = experiment: NCI one-dose screening, melanoma SK-MEL-28; format: cell-based, human; conditions: 10 μM
TK-10 = experiment: NCI one-dose screening, renal cancer TK-10; format: cell-based, human; conditions: 10 μM
COLO 205 = experiment: NCI one-dose screening, colon cancer COLO 205; format: cell-based, human; conditions: 10 μM
HCT-15 = experiment: NCI one-dose screening, colon cancer HCT-15; format: cell-based, human; conditions: 10 μM
SNB-75 = experiment: NCI one-dose screening, CNS cancer SNB-75; format: cell-based, human; conditions: 10 μM
SF-539 = experiment: NCI one-dose screening, CNS cancer SF-539; format: cell-based, human; conditions: 10 μM
MDA-MB-231/ATCC = experiment: NCI one-dose screening, breast cancer MDA-MB-231/ATCC; format: cell-based, human; conditions: 10 μM
SK-MEL-2 = experiment: NCI one-dose screening, melanoma SK-MEL-2; format: cell-based, human; conditions: 10 μM
DU145 = experiment: NCI one-dose screening, prostate cancer DU145; format: cell-based, human; conditions: 10 μM
SNB-19 = experiment: NCI one-dose screening, CNS cancer SNB-19; format: cell-based, human; conditions: 10 μM
MALME-3M = experiment: NCI one-dose screening, melanoma MALME-3M; format: cell-based, human; conditions: 10 μM
NCI-H460 = experiment: NCI one-dose screening, non-small cell lung cancer NCI-H460; format: cell-based, human; conditions: 10 μM
RXF, 393 = experiment: NCI one-dose screening, renal cancer RXF, 393; format: cell-based, human; conditions: 10 μM
HT29 = experiment: NCI one-dose screening, colon cancer HT29; format: cell-based, human; conditions: 10 μM
MCF7 = experiment: NCI one-dose screening, breast cancer MCF7; format: cell-based, human; conditions: 10 μM
UACC-62 = experiment: NCI one-dose screening, melanoma UACC-62; format: cell-based, human; conditions: 10 μM
EKVX = experiment: NCI one-dose screening, non-small cell lung cancer EKVX; format: cell-based, human; conditions: 10 μM
MDA-MB-468 = experiment: NCI one-dose screening, breast cancer MDA-MB-468; format: cell-based, human; conditions: 10 μM
SN12C = experiment: NCI one-dose screening, renal cancer SN12C; format: cell-based, human; conditions: 10 μM
NCl/ADR-RES = experiment: NCI one-dose screening, breast cancer NCl/ADR-RES; format: cell-based, human; conditions: 10 μM; listed under Ovarian cancer
HCT-116 = experiment: NCI one-dose screening, colon cancer HCT-116; format: cell-based, human; conditions: 10 μM
BT-549 = experiment: NCI one-dose screening, breast cancer BT-549; format: cell-based, human; conditions: 10 μM
human tumor cell lines = experiment: NCI one-dose screening, Mean / Delta / Range of growth percent over all tested cell lines; format: cell-based; conditions: 10 μM
HCC-2998 = experiment: NCI one-dose screening, colon cancer HCC-2998; format: cell-based, human; conditions: 10 μM
OVCAR-5 = experiment: NCI one-dose screening, ovarian cancer OVCAR-5; format: cell-based, human; conditions: 10 μM
LOX IMVI = experiment: NCI one-dose screening, melanoma LOX IMVI; format: cell-based, human; conditions: 10 μM
CAKI-1 = experiment: NCI one-dose screening, renal cancer CAKI-1; format: cell-based, human; conditions: 10 μM
NCI-H226 = experiment: NCI one-dose screening, non-small cell lung cancer NCI-H226; format: cell-based, human; conditions: 10 μM
SK-OV-3 = experiment: NCI one-dose screening, ovarian cancer SK-OV-3; format: cell-based, human; conditions: 10 μM
SK-MEL-5 = experiment: NCI one-dose screening, melanoma SK-MEL-5; format: cell-based, human; conditions: 10 μM
HOP-62 = experiment: NCI one-dose screening, non-small cell lung cancer HOP-62; format: cell-based, human; conditions: 10 μM
K562cell line = experiment: NCI one-dose screening, leukemia K562; format: cell-based, human; conditions: 10 μM
[1] = system: PC-3 prostate cancer cell line; experiment: SRB assay cell viability, PC-3 prostate cancer cell line; format: cell-based, human; conditions: Homo sapiens, PC-3 prostate cancer cell line, Table II prints no unit, μM printed, read-out: SRB assay: 50% inhibition of cancer cell proliferation of sample concentration (IC50) of PC-3 prostate cancer cell line
UO-31 = experiment: NCI one-dose screening, renal cancer UO-31; format: cell-based, human; conditions: 10 μM
[2] = NCI one-dose screening, renal cancer A489; format: cell-based, human; conditions: 10 μM
NCI-H23 = experiment: NCI one-dose screening, non-small cell lung cancer NCI-H23; format: cell-based, human; conditions: 10 μM
OVCAR-8 = experiment: NCI one-dose screening, ovarian cancer OVCAR-8; format: cell-based, human; conditions: 10 μM
MDA, -MB-435 = experiment: NCI one-dose screening, breast cancer MDA, -MB-435; format: cell-based, human; conditions: 10 μM; listed under Melanoma
A549/ATCC = experiment: NCI one-dose screening, non-small cell lung cancer A549/ATCC; format: cell-based, human; conditions: 10 μM
HL-60, TB = experiment: NCI one-dose screening, leukemia HL-60, TB; format: cell-based, human; conditions: 10 μM
UACC-257 = experiment: NCI one-dose screening, melanoma UACC-257; format: cell-based, human; conditions: 10 μM
SR = experiment: NCI one-dose screening, leukemia SR; format: cell-based, human; conditions: 10 μM
MOLT-4 = experiment: NCI one-dose screening, leukemia MOLT-4; format: cell-based, human; conditions: 10 μM
IGROV1 = experiment: NCI one-dose screening, ovarian cancer IGROV1; format: cell-based, human; conditions: 10 μM
PC-3 = experiment: NCI one-dose screening, prostate cancer PC-3; format: cell-based, human; conditions: 10 μM
NCI-H522 = experiment: NCI one-dose screening, non-small cell lung cancer NCI-H522; format: cell-based, human; conditions: 10 μM
OVCAR-3 = experiment: NCI one-dose screening, ovarian cancer OVCAR-3; format: cell-based, human; conditions: 10 μM
M14 = experiment: NCI one-dose screening, melanoma M14; format: cell-based, human; conditions: 10 μM
PRMI-8226 cell line = experiment: NCI one-dose screening, leukemia PRMI-8226; format: cell-based, human; conditions: 10 μM
786-O = experiment: NCI one-dose screening, renal cancer 786-O; format: cell-based, human; conditions: 10 μM
SF-268 = experiment: NCI one-dose screening, CNS cancer SF-268; format: cell-based, human; conditions: 10 μM
KM12 = experiment: NCI one-dose screening, colon cancer KM12; format: cell-based, human; conditions: 10 μM
SF-295 = experiment: NCI one-dose screening, CNS cancer SF-295; format: cell-based, human; conditions: 10 μM

For `CSc1ccc(Sc2cc3c(c4nsnc24)C(=O)c2ccccc2C3=O)cc1` [C43, 4-(4-(methylthio)phenylthio)anthra[2,1-c] [1,2,5]thiadiazol-6,11-dione], the “Growth Percent T-47D” value (T-47D) was 86.56%, the “Growth Percent ACHN” value (ACHN) was 103.64% and the “Growth Percent HS 578T” value (HS 578-T) was 96.47%. For the same molecule, the “Growth Percent U251” value (U251) was 103.89%, the “Growth Percent HOP-92” value (HOP-92) was 04.31% and the “Growth Percent SK-MEL-28” value (SK-MEL-28) was 119.66%. For the same molecule, the “Growth Percent TK-10” value (TK-10) was 128.10%, the “Growth Percent COLO 205” value (COLO 205) was 117.30% and the “Growth Percent HCT-15” value (HCT-15) was 111.56%. The “Growth Percent SNB-75” value (SNB-75) was 75.08%, the “Growth Percent SF-539” value (SF-539) was 96.48% and the “Growth Percent MDA-MB-231/ATCC” value (MDA-MB-231/ATCC) was 78.80%. For the same molecule, the “Growth Percent SK-MEL-2” value (SK-MEL-2) was 89.27%, the “Growth Percent DU145” value (DU145) was 101.05% and the “Growth Percent SNB-19” value (SNB-19) was 101.61%. For the same molecule, the “Growth Percent MALME-3M” value (MALME-3M) was 104.58%, the “Growth Percent NCI-H460” value (NCI-H460) was 106.20% and the “Growth Percent RXF 393” value (RXF, 393) was 106.98%. The “Growth Percent HT29” value (HT29) was 102.26%, the “Growth Percent MCF7” value (MCF7) was 82.87% and the “Growth Percent UACC-62” value (UACC-62) was 110.99%. For the same molecule, the “Growth Percent EKVX” value (EKVX) was 113.82%, the “Growth Percent MDA-MB-468” value (MDA-MB-468) was 82.25% and the “Growth Percent SN12C” value (SN12C) was 98.04%. The “Growth Percent NCI/ADR-RES” value (NCl/ADR-RES) was 91.79%, the “Growth Percent HCT-116” value (HCT-116) was 101.97% and the “Growth Percent BT-549” value (BT-549) was 107.82%. For the same molecule, the “Growth Percent Delta” value (human tumor cell lines; delta over all cell lines) was 40.76%, the “Growth Percent Mean” value (human tumor cell lines; mean over all cell lines) was 96.80% and the “Growth Percent Range” value (human tumor cell lines; range over all cell lines) was 72.06%. The “Growth Percent HCC-2998” value (HCC-2998) was 111.01%, the “Growth Percent OVCAR-5” value (OVCAR-5) was 108.31% and the “Growth Percent LOX IMVI” value (LOX IMVI) was 68.98%. For the same molecule, the “Growth Percent CAKI-1” value (CAKI-1) was 99.44%, the “Growth Percent NCI-H226” value (NCI-H226) was 79.69% and the “Growth Percent SK-OV-3” value (SK-OV-3) was 102.46%. For the same molecule, the “Growth Percent SK-MEL-5” value (SK-MEL-5) was 101.45%, the “Growth Percent HOP-62” value (HOP-62) was 102.09% and the “Growth Percent K562” value (K562cell line) was 67.50%. For the same molecule, the IC50 [1] was greater than 15 µM, the “Growth Percent UO-31” value (UO-31) was 67.56% and the “Growth Percent A498” value [2] was 56.04%. The “Growth Percent NCI-H23” value (NCI-H23) was 81.49%, the “Growth Percent OVCAR-8” value (OVCAR-8) was 97.37% and the “Growth Percent MDA-MB-435” value (MDA, -MB-435) was 118.40%. For the same molecule, the “Growth Percent A549/ATCC” value (A549/ATCC) was 104.69%, the “Growth Percent HL-60(TB)” value (HL-60, TB) was 105.25% and the “Growth Percent UACC-257” value (UACC-257) was 109.51%. The “Growth Percent SR” value (SR) was 96.31%, the “Growth Percent MOLT-4” value (MOLT-4) was 59.93% and the “Growth Percent IGROV1” value (IGROV1) was 95.67%. The “Growth Percent PC-3” value (PC-3) was 78.37%, the “Growth Percent NCI-H522” value (NCI-H522) was 95.39% and the “Growth Percent OVCAR-3” value (OVCAR-3) was 102.89%. For the same molecule, the “Growth Percent M14” value (M14) was 107.55%, the “Growth Percent RPMI-8226” value (PRMI-8226 cell line) was 88.58% and the “Growth Percent 786-0” value (786-O) was 109.83%. The “Growth Percent SF-268” value (SF-268) was 89.67%, the “Growth Percent KM12” value (KM12) was 100.42% and the “Growth Percent SF-295” value (SF-295) was 98.897%.

Reference: US8877748B2, “Heterocyclic fused anthraquinone derivatives, manufacturing method and pharmaceutical composition using thereof” (National Defense Medical Center, priority 2012, dated 2014)
